The record followed here is patent US20040241310A1, “Method of producing antibodies ex-vivo” (priority 2001, published 2004).

The experiment relates to White Leghorn chickens. In kind it is in vivo. The following applies: oral gavage, 100 μg human IgG together with the adjuvant, two hens per group.

For the molecule `CCCCCCCCCCCCCCCCCC[N+](C)(C)CCCCCCCCCCCCCCCCCC.[Br-]` [DDA, Dimethyl dioctadecyl ammonium bromide], the “titers (antibodies in egg yolk)” value was “no or very low titers”. Then CTB, with “One of four chickens in the CTB-group showed high titers”.
